The text below walks through data of patent US6987106B1, “1,4-diazabicyclo[3.2.2]nonane-4-carboxylates and carboxamide derivates, production and use thereof in therapeutics” (Sanofi-Aventis, priority 1999, dated 2006).

What is called melting point is the temperature, or range, at which the solid turns liquid.

Compound `Br.CN(C(=O)N1CCN2CCC1CC2)c1ccccc1` yielded a melting point of 206 to 207 °C.
